Experimental data taken from patent publication US8343968B2, “Case of renin inhibitors” (Merck Canada Inc., priority 2007, dated 2013).

Experiments:
[1] = target: T1, renin in human plasma (human recombinant renin) (Homo sapiens, UniProt P00797); assay: Inhibition of renin in human plasma, enzymatic in vitro assay with Ang I EIA; format: biochemical; conditions: human plasma from 10 normal donors; human recombinant renin 3 pM
T1 construct: host or cells: human plasma from 10 normal donors as matrix
T1 sequence (P00797 67-406): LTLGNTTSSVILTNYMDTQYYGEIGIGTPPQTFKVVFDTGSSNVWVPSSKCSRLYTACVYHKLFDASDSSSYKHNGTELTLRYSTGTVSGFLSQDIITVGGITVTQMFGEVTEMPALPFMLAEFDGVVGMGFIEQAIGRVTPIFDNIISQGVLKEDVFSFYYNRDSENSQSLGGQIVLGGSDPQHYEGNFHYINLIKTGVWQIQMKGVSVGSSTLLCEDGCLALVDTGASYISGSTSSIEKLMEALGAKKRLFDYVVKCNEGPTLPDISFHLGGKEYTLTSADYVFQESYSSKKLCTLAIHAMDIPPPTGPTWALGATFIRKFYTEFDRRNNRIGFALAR
Experimental: Inhibition of Renin in Human Plasma
The enzymatic in vitro assay was performed in 384-well polypropylene plates (Nunc). The assay buffer consisted of PBS (Gibco BRL) including 1 mM EDTA and 0.1% BSA. The reaction mixture was composed of 80 μL per well of human plasma, enzyme, Ang I-antibodies mix and 5 μL of renin inhibitors in DMSO. The human plasma mix was premixed at 4° C. and consists of • human plasma from 10 normal donors • human recombinant renin (3 pM) • Ang I-antibodies. The mixtures were then incubated at 37° C. for 2 h.
To determine the enzymatic activity and its inhibition, the accumulated Ang I was detected by an enzyme immunoassay (EIA) in 384-well plates (Nunc). 10 μL of the reaction mixture or standards were transferred to immuno plates which were previously coated with a covalent complex of Ang I and bovine serum albumin (Ang I-BSA). 70 μL assay buffer were added and the plates were incubated at 4° C. overnight. The plates were washed 3 times with PBS including 0.01% Tween 20, and then incubated for 2 h at RT with an anti rabbit-peroxidase coupled antibody (WA 934, Amersham).

human recombinant renin = target: T2, human recombinant renin (Homo sapiens, UniProt P00797); assay: Inhibition of human recombinant renin (buffer), enzymatic in vitro assay with Ang I EIA; format: biochemical; conditions: assay buffer PBS, 1 mM EDTA, 0.1% BSA; human recombinant renin 40 pM
T2 sequence (P00797 67-406): T1 sequence (P00797 67-406)
Experimental: Inhibition of Human Recombinant Renin
The enzymatic in vitro assay was performed in 384-well polypropylene plates (Nunc). The assay buffer consisted of PBS (Gibco BRL) including 1 mM EDTA and 0.1% BSA. The reaction mixture were composed of 47.5 μL per well of an enzyme mix and 2.5 μL of renin inhibitors in DMSO. The enzyme mix was premixed at 4° C. and consists of the following components: • human recombinant renin (40 pM) • synthetic human angiotensin(1-14) (0.5 μM) • hydroxyquinoline sulfate (1 mM) The mixtures were then incubated at 37° C. for 3 h. The enzyme reaction was stopped by placing the reaction plate on wet ice.
To determine the enzymatic activity and its inhibition, the accumulated Ang I was detected by an enzyme immunoassay (EIA) in 384-well plates (Nunc). 5 μL of the reaction mixture or standards were transferred to immuno plates which were previously coated with a covalent complex of Ang I and bovine serum albumin (Ang I-BSA). 75 μL of Ang I-antibodies in assay buffer above including 0.01% Tween 20 were added and the plates were incubated at 4° C. overnight.
An alternative protocol could be used by stopping the enzymatic reaction with 0.02N final concentration of HCl. 5 μL of the reaction mixture or standards were transferred to immuno plates and 75 μL of Ang I-antibodies in assay buffer above including 0.01% Tween 20 were added and the plates were incubate at RT for 4 h.
The plates were washed 3 times with PBS including 0.01% Tween 20, and then incubated for 2 h at RT with an anti rabbit-peroxidase coupled antibody (WA 934, Amersham).

IC50 [1] [nM] | IC50 (human recombinant renin) [nM] | Structure (SMILES)
11 | 0.064 | CCOC(=O)[C@@H]1C[C@H]1COc1cc(CCCOC)cc(CN(C(=O)[C@H]2CNCC[C@@H]2c2ccc(OCCOc3c(Cl)cc(C)cc3Cl)cc2)C2CC2)c1 [Example 1, Ethyl (1R,2R)-2-{[3-({cyclopropyl[((3R,4S)-4-{4-[2-(2,6-dichloro-4-methylphenoxy)-ethoxy]phenyl}piperidin-3-yl)carbonyl]amino}methyl)-5-(3-methoxypropyl)phen-oxy]methyl}cyclopropanecarboxylate]
1.1 | 0.027 | COCCCc1cc(CN(C(=O)[C@H]2CNCC[C@@H]2c2ccc(OCCOc3c(Cl)cc(C)cc3Cl)cc2)C2CC2)cc(OC[C@@H]2C[C@H]2C(=O)O)c1 [Example 2]
5.6 | 0.036 | COCCCc1cc(CN(C(=O)[C@H]2CNCC[C@@H]2c2ccc(OCCOc3c(Cl)cc(C)cc3Cl)cc2)C2CC2)cc(OCC2(CC(=O)O)CC2)c1 [Example 12, (1-{[3-({Cyclopropyl[((3R,4S)-4-{4-[2-(2,6-dichloro-4-methylphenoxy)ethoxy]-phenyl}piperidin-3-yl)carbonyl]amino}methyl)-5-(3-methoxypropyl)phenoxy]-methyl}cyclopropyl)acetic Acid]
2.3 | 0.03 | COCCCc1cc(CN(C(=O)[C@H]2CNCC[C@@H]2c2ccc(OCCOc3c(Cl)cc(C)cc3Cl)cc2)C2CC2)cc(OCC2(Cc3nn[nH]n3)CC2)c1 [Example 14, (3R,4S)—N-Cyclopropyl-4-{4-[2-(2,6-dichloro-4-methylphenoxy)ethoxy]phenyl}-N-(3-(3-methoxypropyl)-5-{[1-(2H-tetrazol-5-ylmethyl)cyclopropyl]methoxy}benzyl)-piperidine-3-carboxamide]
